The test system of the assay is Human Umbilical Vein Endothelial cells (VEGF-stimulated). Description: HUVEC proliferation assay, VEGF-stimulated. The format is cell-based. To be noted: VEGF 50 ng/mL, 72 h, CyQuant, read-out: inhibited VEGF-stimulated HUVEC proliferation at a level. How it is done:
Human Umbilical Vein Endothelial cells are purchased from Clonetics, Inc., as cryopreserved cells harvested from a pool of donors. These cells, at passage 1, are thawed and expanded in EBM-2 complete medium, until passage 2 or 3. The cells are trypsinized, washed in DMEM+10% FBS+antibiotics, and spun at 1000 rpm for 10 min. Prior to centrifugation of the cells, a small amount is collected for a cell count. After centrifugation, the medium is discarded, and the cells are resuspended in the appropriate volume of DMEM+10% FBS+antibiotics to achieve a concentration of 3×10^5 cells/mL. Another cell count is performed to confirm the cell concentration. The cells are diluted to 3×10^4 cells/mL in DMEM+10% FBS+antibiotics, and 100 μL of cells are added to a 96-well plate. The cells are incubated at 37° C. for 22 h.
Prior to the completion of the incubation period, compound dilutions are prepared. Five-point, five-fold serial dilutions are prepared in DMSO, at concentrations 400-fold greater than the final concentrations desired. 2.5 μL of each compound dilution are diluted further in a total of 1 mL DMEM+10% FBS+antibiotics (400× dilution). Medium containing 0.25% DMSO is also prepared for the 0 μM compound sample. At the 22-hour timepoint, the medium is removed from the cells, and 100 μL of each compound dilution is added. The cells are incubated at 37° C. for 2-3 h.
During the compound pre-incubation period, the growth factors are diluted to the appropriate concentrations. Solutions of DMEM+10% FBS+antibiotics, containing either VEGF or bFGF at the following concentrations: 50, 10, 2, 0.4, 0.08, and 0 ng/mL are prepared. For the compound-treated cells, solutions of VEGF at 550 ng/mL or bFGF at 220 ng/mL for 50 ng/mL or 20 ng/mL final concentrations, respectively, are prepared since 10 μL of each will be added to the cells (110 μL final volume). At the appropriate time after adding the compounds, the growth factors are added. VEGF is added to one set of plates, while bFGF is added to another set of plates. For the growth factor control curves, the media on wells B4-G6 of plates 1 and 2 are replaced with media containing VEGF or bFGF at the varying concentrations (50-0 ng/mL). The cells are incubated at 37° C. for an additional 72 h.
At the completion of the 72 h incubation period, the medium is removed, and the cells are washed twice with PBS. After the second wash with PBS, the plates are tapped gently to remove excess PBS, and the cells are placed at −70° C. for at least 30 min. The cells are thawed and analyzed using the CyQuant fluorescent dye (Molecular Probes C-7026), following the manufacturer's recommendations. The plates are read on a Victor/Wallac 1420 workstation at 485 nm/530 nm (excitation/emission). Raw data are collected and analyzed using a 4-parameter fit equation in XLFit. IC50 values are then determined.

`CNc1nccc(CNc2ncccc2C(=O)Nc2ccc(C(C)(C)C)c(NC(=O)CN(C)C)c2)n1` [Example 1077, N-(4-(1,1-dimethylethyl)-3-((N,N-dimethylglycyl)amino)phenyl)-2-(((2-(methylamino)-4-pyrimidinyl)methyl)amino)-3-pyridinecarboxamide]: the IC50 was less than 50 nM.
With `CNc1nccc(CNc2ncccc2C(=O)Nc2ccc3c(c2)NC(=O)C3(C(F)(F)F)C(F)(F)F)n1` [Example 1036, 2-(((2-(Methylamino)-4-pyrimidinyl)methyl)amino)-N-(2-oxo-3,3-bis(trifluoromethyl)-2,3-dihydro-1H-indol-6-yl)-3-pyridinecarboxamide], the IC50 is less than 50 nM.
`CNc1cc(CNc2ncccc2C(=O)Nc2ccc3c(c2)N(S(C)(=O)=O)CC3(C)C)ccn1` [Example 1058, N-(3,3-dimethyl-1-(methylsulfonyl)-2,3-dihydro-1H-indol-6-yl)-2-(((2-(methylamino)-4-pyridinyl)methyl)amino)-3-pyridinecarboxamide]: the IC50 is less than 50 nM.
In the case of `CNc1cc(CNc2ncccc2C(=O)Nc2ccc3c(c2)N(C(C)=O)CC3(C)C)ccn1` [Example 1103, N-(1-Acetyl-3,3-dimethyl-2,3-dihydro-1H-indol-6-yl)-2-[(2-methylamino-pyridin-4-ylmethyl)-amino]-nicotinamide], the IC50 is less than 50 nM.
`CC(C)(C)OC(=O)N1CCC[C@@H]1COc1cc(NC(=O)c2cccnc2NCc2ccncc2)cc(C(F)(F)F)c1` [Example 916, (R) N-[3-(1-Boc-pyrrolidin-2-ylmethoxy)-5-trifluoromethyl-phenyl]-2-[(pyridin-4-ylmethyl)-amino]-nicotinamide]: the IC50 is less than 50 nM.
`CN1CCC(CCCOc2cc(CNc3ncccc3C(=O)Nc3ccc(C(F)(F)F)cc3)ccn2)CC1` [Example 922, 2-({2-[3-(1-Methyl-piperidin-4-yl)-propoxy]-pyridin-4-ylmethyl}-amino)-N-(4-trifluoromethyl-phenyl)-nicotinamide]: the IC50 was less than 50 nM.
Then `CNc1nccc(CNc2ncccc2C(=O)Nc2ccc3c(c2)NC(=O)CC3(C)C)n1` [Example 1115, N-(4,4-Dimethyl-2-oxo-1,2,3,4-tetrahydro-quinolin-7-yl)-2-[(2-methylamino-pyrimidin-4-ylmethyl)-amino]-nicotinamide], with less than 50 nM; and `CCOC(=O)N1CC2(CC2)c2ccc(NC(=O)c3cccnc3NCc3ccnc(NC)c3)cc21` [Example 1106, Ethyl [1,2-dihydro-6-({2-[(2-methylamino-pyridin-4-ylmethyl)-amino]-pyridine-3-carbonyl}-amino)-3-spiro-1′-cyclopropyl-1H-indole]-1-carbamate], with less than 50 nM.
`O=C(Nc1cc(CCCN2CCCCC2)cc(C(F)(F)F)c1)c1cccnc1NCc1ccncc1` [Example 963, N-[3-(3-Piperidin-1-yl-propyl)-5-trifluoromethyl-phenyl]-2-[(pyridin-4-ylmethyl)-amino]-nicotinamide]: the IC50 was less than 50 nM.
On to `CC1(C)CNc2cc(NC(=O)c3cccnc3NCc3ccnc4ccccc34)ccc21` [Example 1023, N-(3,3-Dimethyl-2,3-dihydro-1H-indol-6-yl)-2-((4-quinolinylmethyl)amino)-3-pyridinecarboxamide], for which the IC50 was less than 50 nM.
Turning to `O=C(Nc1cc(CCCN2CCOCC2)cc(C(F)(F)F)c1)c1cccnc1NCc1ccncc1` [Example 964, N-[3-(3-Morpholin-4-yl-propyl)-5-trifluoromethyl-phenyl]-2-[(pyridin-4-ylmethyl)-amino]-nicotinamide], the IC50 was less than 50 nM.
In the case of `CC1(C)CNCc2cc(NC(=O)c3cccnc3NCc3ccnc4c3CCN4)ccc21` [Example 1147, 2-[(2,3-Dihydro-1H-pyrrolo[2,3-b]pyridin-4-ylmethyl)-amino]-N-(4,4-dimethyl-1,2,3,4-tetrahydro-isoquinolin-7-yl)-nicotinamide], the IC50 was less than 50 nM.

For the origin of these results see US7687643B2, “Process for preparing 3,3-dimethylindolines” (Amgen Inc., priority 2001, dated 2010).
